Values joined by “and” are separate entries in the source; they are usually repeats but may differ in a detail not shown here. Equal entries are not always repeated.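 All cell lines were grown in 96-well plates and treated with compound for 48 hours. GI50: concentration for 50% inhibition of growth. TGI: total growth inhibition.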
Key:
Experiment in all cases: DTP human tumour cell line panel, 48 h
A498 renal = test system: A498 renal
SNB-75 CNS = test system: SNB-75 CNS
T-47D breast = test system: T-47D breast
OVCAR-4 ovarian = test system: OVCAR-4 ovarian
MOLT-4 leukemia = test system: MOLT-4 leukemia
SN12C renal = test system: SN12C renal
SK-MEL-5 melanoma = test system: SK-MEL-5 melanoma
MDA-MB-231 breast = test system: MDA-MB-231 breast
SW-620 colon = test system: SW-620 colon
M14 melanoma = test system: M14 melanoma

Compound	TGI (A498 renal)	GI50 (SNB-75 CNS) [µM]	TGI (SNB-75 CNS)	TGI (T-47D breast) [µM]	GI50 (OVCAR-4 ovarian) [µM]	TGI (OVCAR-4 ovarian) [µM]	TGI (MOLT-4 leukemia) [µM]	TGI (SN12C renal) [µM]	TGI (SK-MEL-5 melanoma)	GI50 (MDA-MB-231 breast) [µM]	TGI (MDA-MB-231 breast)	GI50 (SW-620 colon) [µM]	TGI (SW-620 colon)	GI50 (M14 melanoma) [µM]	TGI (M14 melanoma)	GI50 (A498 renal) [µM]	GI50 (T-47D breast) [µM]	GI50 (MOLT-4 leukemia) [µM]	GI50 (SN12C renal) [µM]	GI50 (SK-MEL-5 melanoma) [µM]
Cc1c(O)c2c(c(O)c1Br)C(=O)C=CC2=O	3.18 µM and 3.87 µM	2.1	2.85 µM and 5.07 µM	2.01	1.03	2.23	0.101	2.73	0.974 µM and 1.78 µM	1.58	3.01 µM and 3.48 µM	0.449	0.364 µM and 2.27 µM	1.01	1.11 µM and 2.28 µM					
COc1cc2c(cc1Nc1nc(Nc3cccc(F)c3C(N)=O)c3cc[nH]c3n1)N(C(=O)CN1CCN(C(C)C)CC1)CC2	3.68 µM	3	6.18 µM	6.54	3.88	7.94	10.7	10.5	2.56 µM	3.94	8.22 µM	2.81	5.96 µM	3.99	7.54 µM	2.43	3.23	4.74	4.66	1.26
O=C(Nc1n[nH]c2nnc(-c3cccnc3)cc12)C1CC1	0.17 µM	0.141	> 25 µM	> 25	7.66	> 25	> 25	> 25	> 25 µM		> 25 µM	8.97	> 25 µM	> 16.1	> 25 µM	0.051	> 12.9	4.88	> 11.7	4.61
CCCCCCCCC(=O)OCC(CS[As](C)C)OC(=O)CCCCCCCC (centres undefined)	10.7 µM	5.44	23.5 µM	20.1	9.89	38.4	2.21	12.6	0.388 µM	2.7	18.4 µM	0.349	14.9 µM	0.831	12.7 µM	2.38	0.267	0.326	2.08	0.163
COc1cc(C(=O)N/N=C/c2ccc(N(C)C)cc2)cc(OC)c1OC	0.799 µM	0.152	> 100 µM	> 100	0.824	> 100	19.4	> 100	1.16 µM	1.89	> 87.9 µM	0.424	> 100 µM	0.335	> 100 µM	0.172	> 100	0.729	1.1	0.198
CCN(CC)C1CCC(Nc2c(C(C)=O)cnc3ccc(-c4ccc(O)c(Cl)c4)cc23)CC1 (centres undefined)	6.84 µM	0.152	5.33 µM	> 100	0.77	13.6	1.18	> 60	4.55 µM	0.741	12.5 µM	0.933	4.38 µM	0.468	15.4 µM	2.19	1.94	0.253	0.45	0.782
COc1ccc(-n2ccnc2-c2cc(OC)c(OC)c(OC)c2)cc1	5.14 µM	2.19	6.31 µM	> 100	11.3	85.7	> 100	> 100	11.1 µM	6.13	> 100 µM	2.37	> 100 µM	2.46	> 100 µM	0.798	8.48	5.75	6.24	1.91
O=C1c2ccccc2-c2c1c1ccccc1c(=O)n2CCCNCCCCNCCCN1C(=O)c2ccccc2C2C(=O)c3ccccc3C21 (centres undefined)	2.21 µM	0.726	1.46 µM	1.77	0.779	10.3	0.711	0.818	3.93 µM	0.284	1.04 µM	0.126	1.21 µM	0.643	1.53 µM	0.628	0.643	< 0.005	< 0.005	0.939
COC1=CC(c2ccc[nH]2)=N/C1=C\c1[nH]c(C)c(C(=O)CCCCC(=O)Oc2ccc3c(c2)CCC2C3CC[C@]3(C)[C@@H](O)CC[C@@H]23)c1C (some centres undefined)	> 100 µM	12.7	> 100 µM	4.25	9.44	> 100	> 100	> 100	> 100 µM	2	8.04 µM	4.33	> 100 µM	4.78	> 100 µM	> 100	1.39	5.02	> 100	3.63
O=C(Nc1ccc(/C=C/c2ccc(NC(=O)c3cc(S(=O)(=O)O)c4cccnc4c3O)cc2S(=O)(=O)O)c(S(=O)(=O)O)c1)c1cc(S(=O)(=O)O)c2cccnc2c1O	> 64.4 µM	8.18	48.7 µM	> 100	> 54.4	> 75.2	> 28.7	> 59.2	> 64.3 µM	16.3	> 68.4 µM	17.8	> 83.8 µM	7.18	> 49 µM	46.6	> 49.6	1.69	4.36	50.2
O=C1OCC2=C1C(c1ccc(Cl)c(Cl)c1)c1cc3c(cc1N2CCO)CCC3 (centres undefined)	1.37 µM	0.134	11.7 µM	20.6	0.326	21.4	27.8	8.91	7.22 µM	0.747	9.36 µM	0.166	10.7 µM	0.2	6.53 µM	0.0919	0.25	0.628	0.398	0.181
CC(=O)N1N=C2/C(=C/c3ccc(Cl)cc3)CC(C)CC2C1c1ccc(Cl)cc1 (centres undefined)	28.7 µM	18.4	65.3 µM	61.8	27.9	> 100	39.3	40.4	25 µM	18.1	52.6 µM	19.3	57.7 µM	17.7	35.3 µM	13	12.4	11.6	19.9	12.2
O=C(Nc1ccccc1)c1cc(S(=O)(=O)Nc2nc3ccccc3o2)c(SCc2ccccc2)cc1Cl	34.6 µM	25.3	66.9 µM	91.3	33.8	> 100	37.8	46.2	28 µM	18.3	42.4 µM	17.1	37.7 µM	20.6	38.6 µM	15.2	22.5	13.3	20.3	14.1
COc1ccc(C2=NN(C(=O)c3cc(OC)c(OC)c(OC)c3)C(c3ccc(N(C)C)cc3)C2)cc1 (centres undefined)	9.23 µM	0.346	8.72 µM	> 100	0.548	> 100	> 100	> 100	4.88 µM	1.72	8.75 µM	0.427	> 100 µM	0.496	> 21 µM	0.337	0.535	3.87	2.6	0.424
Cc1cc(C(C)(C)C)cc(CNC2CCCCC2)c1O	30.3 µM		26 µM	32.8		51.5	92.4	29.5	30.9 µM		32.9 µM		40.4 µM		29.4 µM					
O=C(O)c1ccc(C(=O)O)c(C(=O)Nc2ccc3c(c2)C(=O)c2ccccc2-3)c1	> 100 µM		> 100 µM	> 100		> 100	> 100	> 100	> 100 µM		> 100 µM		> 100 µM		> 100 µM					
CCCCCCCCn1ccc2cc(NC(=O)Cn3cc(CN4CCCCC4)nn3)ccc21	19.5 µM	1.51	2.96 µM	4.31	3.66	14.3	7.23	3.75	3.16 µM	1.8	3.52 µM	1.84	3.59 µM	1.78	3.43 µM	5.05	1.99	2.59	1.8	1.77
COc1cc(-c2c(C#N)c(N)nc(N3CCOCC3)c2C#N)cc(OC)c1OC	> 100 µM	1.64	54.4 µM	> 100	> 100	> 100	> 100	> 100	> 100 µM	22.6	78.9 µM	> 100	> 100 µM	> 100	> 100 µM	> 100	15.1	> 100	> 100	> 100
Cn1c(/C=C/[N+](=O)[O-])cc2ccccc21	9.27 µM	3.36	28.4 µM	8.61	10.3	92.1	58	> 100	13.3 µM	5.49	47.9 µM	1.67	3.22 µM	1.77	3.56 µM	2.19	2.79	5.36	13.1	3.07
COc1cc2c(cc1OC)C1Cc3cc(OC)c(OC)cc3C(C2)N1C	> 100 µM		> 100 µM	> 75		> 100	> 100	> 100	> 100 µM		> 75 µM		> 100 µM		> 100 µM					
CC(=O)OC12COC1CC(O)C1(C)C(=O)C(O)C3=C(C)C(O)CC(O)(C(OC(=O)c4ccccc4)C21)C3(C)C (centres undefined)	> 100 µM		> 29.9 µM	> 100		> 100	> 100	> 100	29.5 µM		> 100 µM	2.48	> 100 µM		> 100 µM					
O=C1c2cccc(NCCN=Cc3ccccc3O)c2C(=O)c2c(NCCN=Cc3ccccc3O)cccc21	2.6 µM	0.163	2.65 µM	4.46		2.39	1.56	2.05	4.03 µM	0.489	2.28 µM	0.258	1.38 µM	1.88	5.63 µM	1.11	0.684	0.353	0.269	1.55
COc1ccc(C2C(C)C(=O)C(C)C(c3ccc(OC)cc3)N2N=O)cc1 (centres undefined)	> 40.9 µM and 424 µM	5.93	20.4 µM and 80 µM and 57.8 µM	713	> 750	> 1000	> 1000	> 1000	> 750 µM		132 µM	> 750	> 1000 µM		750 µM and > 732 µM				> 750	> 750

From PubChem BioAssay (NCI)
